Measured values: patent publication US20090215850A1, “METHOD FOR TREATING CB2 RECEPTOR MEDIATED PAIN” (priority 2008, published 2009)

Columns and labels:
[1] = biological target: T1, CB2 receptor (Rattus norvegicus, UniProt Q9QZN9); conditions: background statement; cited from earlier work
T1 sequence (Q9QZN9 1-360): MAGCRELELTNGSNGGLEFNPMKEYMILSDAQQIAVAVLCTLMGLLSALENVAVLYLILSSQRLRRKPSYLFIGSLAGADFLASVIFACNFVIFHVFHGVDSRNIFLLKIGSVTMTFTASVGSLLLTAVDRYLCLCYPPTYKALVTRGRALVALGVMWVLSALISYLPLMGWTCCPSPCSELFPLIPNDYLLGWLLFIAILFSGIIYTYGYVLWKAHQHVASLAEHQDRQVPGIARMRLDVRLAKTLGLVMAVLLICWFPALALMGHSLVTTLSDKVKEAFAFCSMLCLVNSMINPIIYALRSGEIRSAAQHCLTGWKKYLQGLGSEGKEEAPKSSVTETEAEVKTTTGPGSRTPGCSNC

[2] = test system: male Sprague-Dawley rats; assay: Carrageenan model of inflammatory pain, radiant heat paw withdrawal, compound given 2.5 hr after carrageenan (Example 2); format: in vivo, rat; conditions: 30 min after compound, seconds±SEM
Procedure: (§1) To assess the ability of test compounds to reverse thermal hyperalgesia, baseline response latencies on a radiant heat (RH) paw stimulator were obtained before an intraplantar injection of carrageenan-λ (200 μL) in male Sprague-Dawley rats (250-350 g in treatment groups of 9 animals each). Only withdrawal responses that were quick hind paw movements (with or without licking of the hind paw) were recorded. Paw movements associated with locomotion or a shifting of weight were not considered a withdrawal response.
(§2) The weight of each animal was recorded on the day of the experiment. Each animal was placed on a warm (approx. body temperature, 30° C.) glass surface and allowed to acclimate to the test chamber for approximately 10-15 minutes. A radiant thermal stimulus (beam of light) was then focused on the sole of each hind paw in turn, and an initial (baseline) response time to thermal stimuli was recorded for each animal. The stimulus intensity (radiant heat at a setting of 5 Amps) that produced 10-15 sec baseline withdrawal latencies was used and a maximum cutoff of 20 sec was imposed. The light stimulus was automatically shut off by a photoelectric relay when the foot moved or when the cut-off time limit was reached.
The experiment of Example 1 is repeated with the exception that animals are first administered 1% carrageenan (200 μL in sterile saline) subcutaneously into the sub-plantar tissue of the left hind paw to stimulate an acute inflammatory reaction.
Two and a half hours later, withdrawal latencies are assessed (‘post-Cg’). One treatment group is then injected i.p. with vehicle (5% DMSO and 5% Tween-80 in sterile saline). The other treatment groups are injected i.p. with 3, 10 or 30 mg/kg of Compound 2. Thirty minutes after test compound administration withdrawal latencies are recorded.

[3] = test system: male Sprague-Dawley rats; assay: Carrageenan model of inflammatory pain, radiant heat paw withdrawal, compound given before carrageenan (Example 1); format: in vivo, rat; conditions: seconds±SEM
Procedure: Intraplantar injection of carrageenan (Cg) in a rodent produces pronounced hypersensitivity to both thermal and mechanical stimuli. The effects of carrageenan are maximal 2-4 hr after administration.
as §1, §2
One treatment group (8 animals each) was injected i.p. with vehicle (5% DMSO and 5% Tween-80 in sterile saline). The other treatment groups (8 animals each) were injected i.p. with 3, 10 or 30 mg/kg Compound 2.
One hour later, withdrawal latencies for the animals administered vehicle were recorded. After assessment, all animals were administered 1% carrageenan (200 μL in sterile saline) subcutaneously into the sub-plantar tissue of the left hind paw to stimulate an acute inflammatory reaction. Three hours later, the response time of the animals to the thermal stimulus was evaluated.

SMILES	antinociception to thermal stimuli [1]	withdrawal latency, 3 hrs post Cg administration ([2]; 3 mg/kg i.p. 2.5 hr after 1% carrageenan) [s]	withdrawal latency, 3 hrs post Cg administration ([2]; 10 mg/kg i.p. 2.5 hr after 1% carrageenan) [s]	withdrawal latency, 3 hrs post Cg administration ([2]; 30 mg/kg i.p. 2.5 hr after 1% carrageenan) [s]	response time (withdrawal latency) to thermal stimulus, 3 hrs post Cg administration ([3]; 3 mg/kg i.p. 1 hr before 1% carrageenan) [s]	response time (withdrawal latency) to thermal stimulus, 3 hrs post Cg administration ([3]; 10 mg/kg i.p. 1 hr before 1% carrageenan) [s]	response time (withdrawal latency) to thermal stimulus, 3 hrs post Cg administration ([3]; 30 mg/kg i.p. 1 hr before 1% carrageenan) [s]
CN1CCCCC1Cn1cc(C(=O)c2cc([N+](=O)[O-])ccc2I)c2ccccc21 (stereo not shown) [AM1241]	produces antinociception	–	–	–	–	–	–
O=C(NCC12CC3CC(CC(C3)C1)C2)c1nn(C2CCCCC2)c2c1CCCCCC2 [Compound 2, 1-cyclohexyl-4,5,6,7,8,9-hexahydro-1H-cyclooctapyrazole-3-carboxylic acid (adamantan-1-ylmethyl)-amide]	–	5.92 ± 1.15	6.88 ± 0.44	8.52 ± 1.08	5.11 ± 0.84	6.18 ± 0.91	14.41 ± 1.75
